Source: patent US12370183B2, “Compositions and methods for treating malaria” (Rutgers, The State University of New Jersey, priority 2020, dated 2025)
Read-outs that look alike come from different tables or passages of the source.

Legend:
Format in all cases: cell-based
[1] = test system: 3D7 strain of Plasmodium falciparum; experiment: Potency in the 3D7 strain of Plasmodium falciparum (EC50); settings: Plasmodium falciparum
Excerpt: (§1) The present invention relates to methods of treating malaria with tetrahydrobenzonaphtyridine carboxanilide (TBN) derivatives and related pyrrolinones and hydrolysis products thereof. These compounds are active against Plasmodium falciparum strains that are resistant to multiple drugs currently on the market. The present invention further relates to novel compounds and pharmaceutical compositions comprising such compounds. The compounds have been synthesized and tested for their potency in the 3D7 strain of Plasmodium falciparum. Their cytotoxicity was also tested in the BJ human fibroblast line. No compounds show significant cytotoxicity.
(§2) A high-throughput screen performed against the Plasmodium parasite. About 8,000 compounds were screened. Each hit was tested against resistant P. falciparum variants K1, V1S, D10DD, ATP4 1247, and C2B. Potency against these assays assured that the chemotype acts through a mechanism distinct from that of halofantrine, chloroquine, mefloquine, pyrimethamine, proguanil, atovaquone, and (+)SJ733. The toxicity of the compounds was also measured by testing their lethality against a BJ cell line (human fibroblasts). No TBNs were toxic. A structure activity investigation was performed in order to improve the EC50 of the TBNs to the single-digit nanomolar range, as well as to increase the water solubility.
(§3) Substituents were installed at N−2 by using a variety of methods. Reductive alkylation (Abdel-Magid, A. F.; Mehrman, S. J. A Review on the Use of Sodium Triacetoxyborohydride in the Reductive Amination of Ketones and Aldehydes. Org. Process Res. Dev. 2006, 10 (5), 971-1031) was a dependable technique that produced over fifteen analogues. Conjugate additions and nucleophilic substitutions provided most of the others. A type of reductive alkylation that uses carboxylic acids instead of aldehydes (the Beller reduction) led to two analogues (Sorribes, I.; Junge, K.; Beller, M. Direct Catalytic N-Alkylation of Amines with Carboxylic Acids. J. Am. Chem. Soc. 2014, 136 (40), 14314-14319. Some of the compounds listed were synthesized through other means, or were derived from other TBNs. Compounds 66 and 128 were produced by the amidation of acids 132 and 133, which had the corresponding substitution already installed. TBNs 93, and 94 were produced from the Pfitzinger products formed from the condensation of isatin with (R)-1-(1-phenylethyl)piperidin-4-one (134) and (S)-1-(1-phenylethyl)piperidin-4-one (135), respectively.

[2] = in vitro; settings: human
Excerpt: as §1, §2

[3] = test system: resistant P. falciparum variant K1; experiment: Potency against resistant P. falciparum variant K1 (EC50); settings: Plasmodium falciparum, K1, read-out: K1 EC50 (μM)
Protocol: as §2, §3

[4] = 3D7, read-out: 3D7 Mean EC50 (μM)
[5] = 3D7, read-out: 3D7 Mean EC50 of the TBN (μM)

CC(C)(C)OC(=O)N1CCc2nc3ccccc3c(C(=O)Nc3ccc(F)c(F)c3)c2C1 [Compound 87, tert-Butyl 10-((3,4-difluorophenyl)carbamoyl)-3,4-dihydrobenzo[b][1,6]naphthyridine-2(1H)-carboxylate]
EC50 [1, 4]: 1.67 ± 0.8 µM
EC50 [2]: > 23.3 µM

CCOCCN1CCc2nc3ccccc3c(C(=O)Nc3ccc(F)c(F)c3)c2C1 [Compound 103, N-(3,4-Difluorophenyl)-2-(2-ethoxyethyl)-1,2,3,4-tetrahydrobenzo[b][1,6]naphthyridine-10-carboxamide]
EC50 [3]: 0.0391 µM
EC50 [1, 4]: 0.451 ± 0.416 µM

CC(c1ncccn1)N1CCc2nc3ccccc3c(C(=O)Nc3ccc(F)c(F)c3)c2C1 (stereo not shown) [Compound 104, N-(3,4-Difluorophenyl)-2-(1-(pyrimidin-2-yl)ethyl)-1,2,3,4-tetrahydrobenzo[b][1,6]naphthyridine-10-carboxamide]
EC50 [3]: 0.117 ± 0.0339 µM
EC50 [1, 4]: 0.453 ± 0.238 µM

O=C(Nc1ccc(F)c(F)c1)c1c2c(nc3ccccc13)CCN(Cc1ccccn1)C2 [Compound 105, N-(3,4-Difluorophenyl)-2-(pyridin-2-ylmethyl)-1,2,3,4-tetrahydrobenzo[b][1,6]naphthyridine-10-carboxamide]
EC50 [3]: 0.129 µM
EC50 [1, 4]: 0.456 ± 0.0964 µM

O=C(Nc1ccc(F)c(F)c1)c1c2c(nc3ccccc13)CCN(Cc1cccnc1)C2 [Compound 106, N-(3,4-Difluorophenyl)-2-(pyridin-3-ylmethyl)-1,2,3,4-tetrahydrobenzo[b][1,6]naphthyridine-10-carboxamide]
EC50 [3]: 0.236 µM
EC50 [1, 4]: 0.475 ± 0.163 µM

O=C(Nc1ccc(F)c(F)c1)c1c2c(nc3ccccc13)CCN(Cc1ccc(F)cc1)C2 [Compound 107, N-(3,4-Difluorophenyl)-2-(4-fluorobenzyl)-1,2,3,4-tetrahydrobenzo[b][1,6]naphthyridine-10-carboxamide]
EC50 [3]: 0.401 µM
EC50 [1, 4]: 0.569 µM

O=C(Nc1ccc(F)c(F)c1)c1c2c(nc3ccccc13)CCN(CCCC(F)(F)F)C2 [Compound 108, N-(3,4-Difluorophenyl)-2-(4,4,4-trifluorobutyl)-1,2,3,4-tetrahydrobenzo[b][1,6]naphthyridine-10-carboxamide]
EC50 [3]: 0.241 µM
EC50 [1, 4]: 0.665 ± 0.734 µM

O=C(Nc1ccc(F)c(F)c1)c1c2c(nc3ccccc13)CCN(Cc1ccncc1)C2 [Compound 111, N-(3,4-Difluorophenyl)-2-(pyridin-4-ylmethyl)-1,2,3,4-tetrahydrobenzo[b][1,6]naphthyridine-10-carboxamide]
EC50 [3]: 0.647 µM
EC50 [1, 4]: 0.983 ± 0.133 µM

Cc1nc(CN2CCc3nc4ccccc4c(C(=O)Nc4ccc(F)c(F)c4)c3C2)cs1 [Compound 112, N-(3,4-Difluorophenyl)-2-((2-methylthiazol-4-yl)methyl)-1,2,3,4-tetrahydrobenzo[b][1,6]naphthyridine-10-carboxamide]
EC50 [3]: 0.641 µM
EC50 [1, 4]: 1.03 ± 0.549 µM

CC(C)(O)CCN1CCc2nc3ccccc3c(C(=O)Nc3ccc(F)c(F)c3)c2C1 [Compound 116, N-(3,4-Difluorophenyl)-2-(3-hydroxy-3-methylbutyl)-1,2,3,4-tetrahydrobenzo[b][1,6]naphthyridine-10-carboxamide]
EC50 [3]: 1.44 ± 0.337 µM
EC50 [1, 4]: 2.01 ± 0.277 µM

O=C(Nc1ccc(F)c(F)c1)c1c2c(nc3ccccc13)CCN(CCO)C2 [Compound 120, N-(3,4-Difluorophenyl)-2-(2-hydroxyethyl)-1,2,3,4-tetrahydrobenzo[b][1,6]naphthyridine-10-carboxamide]
EC50 [3]: 2.2 ± 0.268 µM
EC50 [1, 4]: 3.84 ± 2.08 µM

O=C(Nc1ccc(F)c(F)c1)c1c2c(nc3ccccc13)CCN(CCCO)C2 [Compound 122, N-(3,4-Difluorophenyl)-2-(3-hydroxypropyl)-1,2,3,4-tetrahydrobenzo[b][1,6]naphthyridine-10-carboxamide]
EC50 [3]: 4.64 ± 1.55 µM
EC50 [1, 4]: 6.81 ± 2.54 µM

CN(C)CCN1CCc2nc3ccccc3c(C(=O)Nc3ccc(F)c(F)c3)c2C1 [Compound 124, N-(3,4-Difluorophenyl)-2-(2-(dimethylamino)ethyl)-1,2,3,4-tetrahydrobenzo[b][1,6]naphthyridine-10-carboxamide]
EC50 [3]: > 19.2 µM
EC50 [1, 4]: 8.54 ± 1.84 µM

CN(C)CCCN1CCc2nc3ccccc3c(C(=O)Nc3ccc(F)c(F)c3)c2C1 [Compound 126, N-(3,4-Difluorophenyl)-2-(3-(dimethylamino)propyl)-1,2,3,4-tetrahydrobenzo[b][1,6]naphthyridine-10-carboxamide]
EC50 [3]: > 19.2 µM
EC50 [1, 4]: 9.46 ± 2.17 µM

NCCN1CCc2nc3ccccc3c(C(=O)Nc3ccc(F)c(F)c3)c2C1 [Compound 129, 2-(2-Aminoethyl)-N-(3,4-difluorophenyl)-1,2,3,4-tetrahydrobenzo[b][1,6]naphthyridine-10-carboxamide]
EC50 [3]: 9.46 ± 0.982 µM
EC50 [1, 4]: 14.5 ± 4.73 µM

O=C(O)CCN1CCc2nc3ccccc3c(C(=O)Nc3ccc(F)c(F)c3)c2C1 [Compound 131, 3-(10-((3,4-Difluorophenyl)carbamoyl)-3,4-dihydrobenzo[b][1,6]naphthyridin-2(1H)-yl)propanoic acid]
EC50 [3]: > 19.2 µM
EC50 [1, 4]: > 19.2 µM

O=C(Nc1ccc(F)c(F)c1)c1c2c(nc3c1CN(Cc1ccccc1)CC3)CCCC2 [Compound 137, 2-Benzyl-N-(3,4-difluorophenyl)-1,2,3,4,6,7,8,9-octahydrobenzo[b][1,6]naphthyridine-10-carboxamide]
EC50 [3]: 0.279 µM
EC50 [1, 4]: 0.0949 ± 0.0266 µM
EC50 [1, 5]: > 3.49 µM

CCN1CCc2nc3c(c(C(=O)Nc4ccc(F)c(F)c4)c2C1)CCCC3 [Compound 138, N-(3,4-Difluorophenyl)-2-ethyl-1,2,3,4,6,7,8,9-octahydrobenzo[b][1,6]naphthyridine-10-carboxamide]
EC50 [3]: 0.64 µM
EC50 [1, 4]: 0.715 ± 0.29 µM
EC50 [1, 5]: > 12.2 µM

CC(c1ncccn1)N1CCc2nc3c(c(C(=O)Nc4ccc(F)c(F)c4)c2C1)CCCC3 (stereo not shown) [Compound 139, N-(3,4-Difluorophenyl)-2-(1-(pyrimidin-2-yl)ethyl)-1,2,3,4,6,7,8,9-octahydrobenzo[b][1,6]naphthyridine-10-carboxamide]
EC50 [3]: 0.266 ± 0.0462 µM
EC50 [1, 4]: 0.849 ± 0.52 µM
EC50 [1, 5]: 0.453 ± 0.238 µM

CC(c1ccccn1)N1CCc2nc3c(c(C(=O)Nc4ccc(F)c(F)c4)c2C1)CCCC3 (stereo not shown) [Compound 140, N-(3,4-Difluorophenyl)-2-(1-(pyridin-2-yl)ethyl)-1,2,3,4,6,7,8,9-octahydrobenzo[b][1,6]naphthyridine-10-carboxamide]
EC50 [3]: 0.558 ± 0.123 µM
EC50 [1, 4]: 1.5 ± 0.389 µM
EC50 [1, 5]: 0.0603 ± 0.0234 µM

O=C(Nc1ccc(Cl)cc1)c1c2c(nc3cc(Cl)ccc13)CCN(CCc1ccccc1)C2 [Compound 165, 7-Chloro-N-(4-chlorophenyl)-2-phenethyl-1,2,3,4-tetrahydrobenzo[b][1,6]naphthyridine-10-carboxamide]
EC50 [1, 4]: < 0.00809 µM
EC50 [2]: > 24 µM

COc1ccc(NC(=O)c2c3c(nc4cc(Cl)ccc24)CCN(CCc2ccccc2)C3)cc1OC [Compound 166, 7-Chloro-N-(3,4-dimethoxyphenyl)-2-phenethyl-1,2,3,4-tetrahydrobenzo[b][1,6]naphthyridine-10-carboxamide]
EC50 [1, 4]: < 0.0132 µM
EC50 [2]: > 24 µM

O=C(Nc1cccc(Cl)c1)c1c2c(nc3cc(Cl)ccc13)CCN(CCc1ccccc1)C2 [Compound 167, 7-Chloro-N-(3-chlorophenyl)-2-phenethyl-1,2,3,4-tetrahydrobenzo[b][1,6]naphthyridine-10-carboxamide]
EC50 [1, 4]: 0.0216 ± 0.012 µM
EC50 [2]: > 24 µM

O=C(Nc1ccc(Cl)cc1)c1c2c(nc3ccc(Cl)cc13)CCN(CCc1ccccc1)C2 [Compound 168, 8-Chloro-N-(4-chlorophenyl)-2-phenethyl-1,2,3,4-tetrahydrobenzo[b][1,6]naphthyridine-10-carboxamide]
EC50 [1, 4]: < 0.0348 µM
EC50 [2]: > 24 µM

N#Cc1cc(NC(=O)c2c3c(nc4cc(Cl)ccc24)CCN(CCc2ccccc2)C3)ccc1F [Compound 169, 7-Chloro-N-(3-cyano-4-fluorophenyl)-2-phenethyl-1,2,3,4-tetrahydrobenzo[b][1,6]naphthyridine-10-carboxamide]
EC50 [1, 4]: 0.04 ± 0.032 µM
EC50 [2]: > 24 µM

COc1ccc(NC(=O)c2c3c(nc4ccc(Cl)cc24)CCN(CCc2ccccc2)C3)cc1OC [Compound 170, 8-Chloro-N-(3,4-dimethoxyphenyl)-2-phenethyl-1,2,3,4-tetrahydrobenzo[b][1,6]naphthyridine-10-carboxamide]
EC50 [1, 4]: 0.116 ± 0.025 µM
EC50 [2]: > 24 µM

O=C(Nc1ccc(Br)cc1)c1c2c(nc3cc(Cl)ccc13)CCN(CCc1ccccc1)C2 [Compound 171, N-(4-Bromophenyl)-7-chloro-2-phenethyl-1,2,3,4-tetrahydrobenzo[b][1,6]naphthyridine-10-carboxamide]
EC50 [1, 4]: 0.37 ± 0.26 µM
EC50 [2]: > 24 µM
